Measured values reported in patent EP0532328A2, “Novel lignans, intermediates thereof and a process for preparing the intermediates” (TSUMURA & CO., priority 1991, dated 1993).
Like-named read-outs stand apart in the source and are kept apart here.

Columns and labels:
[1] = solubility in a physiological salt solution; assay type: physicochemical
Experimental: The thus-obtained compound V is dissolved in methanol, and a) when R4 is a methoxyl group, a dilute water solution of sodium hydroxide is added to the solution to hydrolyze it, the thus-reacted solution is washed with ethyl acetate, and the water phase is concentrated, followed by acidifying with 10 % hydrochloric acid or b) when R4 is a benzyloxyl group, hydrogen gas is added to compound V in the presence of palladium on carbon, the used palladium on carbon is removed, and the methanol is distilled off, to obtain a compound represented by the constitutional formula: [drawing 11] wherein R1 and R2 are as defined above, said compound being shown as compound VI. The thus-obtained compound VI is dissolved in a solvent such as acetone, the thus-obtained solution is reacted with a dilute water solution of sodium hydroxide, the thus-reacted solution is filtered to obtain a deposit, the thus-obtained deposit is washed with said solvent, and the thus-washed deposit is dried to obtain a novel lignan compound that is one of the present inventions and that is represented by the constitutional formula: [drawing 12] wherein R1 and R2 are as defined above and R5 is a residual group of the sodium salt of an amino acid, said compound being referred to as compound VII. […]

[2] = solubility in water / purified water; assay type: physicochemical
Experimental: However, intravenous administrations are necessary to promptly produce drug effects in acute phase symptoms in hepatic lesion, etc., or to lower effective doses. An administration by intravenous drop infusion is not preferable as it causes patients physical and psychological pain. However, due to the low solubility in water (0.15 mg/ml of water), an aqueous injection faces a difficulty in maintaining an effective amount of the compound dissolved in an adequate amount of liquid for a one-time administration, because the amount of liquid per dose of the injection is limited to 10 to 20 ml. To make the amount of liquid adequate for the administration of an amount of the effective compound, a large amount of a solubilizing agent such as polyethylene glycol must be used. However, since this causes adverse effects, such as a hemolysis reaction, the amount used should be limited to a certain extent. Thus the development of a material having medicinal effects equivalent to said compounds and a proper solublity in water, as a substance for intravenous injection, has been sought.
The thus-obtained compound V is dissolved in methanol, and a) when R4 is a methoxyl group, a dilute water solution of sodium hydroxide is added to the solution to hydrolyze it, the thus-reacted solution is washed with ethyl acetate, and the water phase is concentrated, followed by acidifying with 10 % hydrochloric acid or b) when R4 is a benzyloxyl group, hydrogen gas is added to compound V in the presence of palladium on carbon, the used palladium on carbon is removed, and the methanol is distilled off, to obtain a compound represented by the constitutional formula: [drawing 11] wherein R1 and R2 are as defined above, said compound being shown as compound VI. The thus-obtained compound VI is dissolved in a solvent such as acetone, the thus-obtained solution is reacted with a dilute water solution of sodium hydroxide, the thus-reacted solution is filtered to obtain a deposit, the thus-obtained deposit is washed with said solvent, and the thus-washed deposit is dried to obtain a novel lignan compound that is one of the present inventions and that is represented by the constitutional formula: [drawing 12] wherein R1 and R2 are as defined above and R5 is a residual group of the sodium salt of an amino acid, said compound being referred to as compound VII. In this reaction, when instead of a dilute water solution of sodium hydroxide, a dilute water solution of another pharmaceutically acceptable metal hydroxide is used, then a compound is obtained wherein R5 is, instead of the residual group of the sodium salt of amino acid, a pharmaceutically acceptable salt other than the residual group of the sodium salt of the amino acid. Said salts are, for example, a potassium salt and a calcium salt.

[3] = in words, compared with the corresponding derivative of gomisin A

Compound: COc1cc2c(c(OC)c1OC)-c1c(cc3c(c1OC)OCO3)C[C@H](C)[C@@](C)(OC(=O)CCC(=O)NCC(=O)O)C2 [gomisin A glycinosodium succinate]
- solubility in a physiological salt solution [1]: 30 mg/10 ml

Compound: COc1cc2c(c(OC)c1OC)-c1c(cc(OC)c(OC)c1OC)C[C@](C)(OC(=O)CCC(=O)NCC(=O)O)[C@@H](C)C2 [schizandrin glycinosodium succinate]
- solubility in a physiological salt solution [1, 3]: quite equivalent to the solubility of each corresponding derivative of gomisin A
- solubility in purified water [2, 3]: quite equivalent to the solubility of each corresponding derivative of gomisin A

Compound: COc1cc2c(c(OC)c1OC)-c1c(cc3c(c1OC)OCO3)C[C@H](C)[C@@](C)(OC(=O)CCC(=O)O)C2 [gomisin Asodium succinate, gomisin A sodium succinate]
- solubility in purified water [2]: 30 mg/2 ml
- solubility relative to the solubility of gomisin A ([2]; ratio to gomisin A): 100 times

Compound: COc1cc2c(c(OC)c1OC)-c1c(cc(OC)c(OC)c1OC)C[C@](C)(OC(=O)CCC(=O)O)[C@@H](C)C2 [schizandrin sodium succinate]
- solubility in purified water [2, 3]: quite equivalent to the solubility of each corresponding derivative of gomisin A
